{"source": "PubChem BioAssay AID2060887", "about": "(Molecular Pharmacology Branch, DTP, NCI, 2025);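 note: spheroids exposed to compounds for 7 days before reading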;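 for viability, T/C: 100% = DMSO vehicle control viability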", "test_system": "782815-120-R-J1-PDC complex spheroid viability", "experiment": "Anticancer human tumor 782815-120-R-J1-PDC patient-derived colon adenocarcinoma cell line growth inhibition [RAS]", "conditions": "for IC50: curve of first compound; for viability, T/C: stronger effect = lower value", "method_in_brief": "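Tumour cells grown as complex spheroids with HUVEC endothelial cells and mesenchymal stem cells, treated with RAS pathway inhibitor combinations. Each agent spans half-log steps from near clinical Cmax, or 10 microM where Cmax is unknown.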", "key": {"[1]": {"conditions": "second compound 0.00316 µM, first compound 0.000949 µM"}, "[2]": {"conditions": "second compound 0.00316 µM, first compound 0.003 µM"}, "[3]": {"conditions": "second compound 0.00316 µM, first compound 0.00949 µM"}, "[4]": {"conditions": "second compound 0.00316 µM, first compound 0.03 µM"}, "[5]": {"conditions": "second compound 0.00316 µM, first compound 0.0949 µM"}, "[6]": {"conditions": "second compound 0.00316 µM, first compound 0.3 µM"}, "[7]": {"conditions": "second compound 0.01 µM, first compound 0.000949 µM"}, "[8]": {"conditions": "second compound 0.01 µM, first compound 0.003 µM"}, "[9]": {"conditions": "second compound 0.01 µM, first compound 0.00949 µM"}, "[10]": {"conditions": "second compound 0.01 µM, first compound 0.03 µM"}, "[11]": {"conditions": "second compound 0.01 µM, first compound 0.0949 µM"}, "[12]": {"conditions": "second compound 0.01 µM, first compound 0.3 µM"}, "[13]": {"conditions": "second compound 0.0316 µM, first compound 0.000949 µM"}, "[14]": {"conditions": "second compound 0.0316 µM, first compound 0.003 µM"}, "[15]": {"conditions": "second compound 0.0316 µM, first compound 0.00949 µM"}, "[16]": {"conditions": "second compound 0.0316 µM, first compound 0.03 µM"}, "[17]": {"conditions": "second compound 0.0316 µM, first compound 0.0949 µM"}, "[18]": {"conditions": "second compound 0.0316 µM, first compound 0.3 µM"}, "[19]": {"conditions": "second compound 0.1 µM, first compound 0.000949 µM"}, "[20]": {"conditions": "second compound 0.1 µM, first compound 0.003 µM"}, "[21]": {"conditions": "second compound 0.1 µM, first compound 0.00949 µM"}, "[22]": {"conditions": "second compound 0.1 µM, first compound 0.03 µM"}, "[23]": {"conditions": "second compound 0.1 µM, first compound 0.0949 µM"}, "[24]": {"conditions": "second compound 0.1 µM, first compound 0.3 µM"}, "[25]": {"conditions": "second compound 0.316 µM, first compound 0.000949 µM"}, "[26]": {"conditions": "second compound 0.316 µM, first compound 0.003 µM"}, "[27]": {"conditions": "second compound 0.316 µM, first compound 0.00949 µM"}, "[28]": {"conditions": "second compound 0.316 µM, first compound 0.03 µM"}, "[29]": {"conditions": "second compound 0.316 µM, first compound 0.0949 µM"}, "[30]": {"conditions": "second compound 0.316 µM, first compound 0.3 µM"}, "[31]": {"conditions": "second compound 1 µM, first compound 0.000949 µM"}, "[32]": {"conditions": "second compound 1 µM, first compound 0.003 µM"}, "[33]": {"conditions": "second compound 1 µM, first compound 0.00949 µM"}, "[34]": {"conditions": "second compound 1 µM, first compound 0.03 µM"}, "[35]": {"conditions": "second compound 1 µM, first compound 0.0949 µM"}, "[36]": {"conditions": "second compound 1 µM, first compound 0.3 µM"}}, "data": [{"smiles": "CC1(C)CCC(Nc2ncc(C(F)(F)F)c(-c3c[nH]c4c(P(C)(C)=O)c(C#N)ccc34)n2)CN1", "note": "(centres undefined) + C=CC(=O)N1CCN(c2nc(OCC3CCCN3C)nc3c(F)c(-c4nc(N)cc(C)c4C(F)(F)F)c(Cl)cc23)C(C)C1", "values": [{"measurement": "IC50", "setting": "second compound 0.00316 µM", "result": "> 300", "unit": "nM"}, {"measurement": "IC50", "setting": "second compound 0.01 µM", "result": "> 300", "unit": "nM"}, {"measurement": "IC50", "setting": "second compound 0.0316 µM", "result": "> 300", "unit": "nM"}, {"measurement": "IC50", "setting": "second compound 0.1 µM", "result": "> 300", "unit": "nM"}, {"measurement": "IC50", "setting": "second compound 0.316 µM", "result": "> 300", "unit": "nM"}, {"measurement": "IC50", "setting": "second compound 1 µM", "result": 270, "unit": "nM"}, {"measurement": "viability, T/C", "setting": "[1]", "result": 106, "unit": "%"}, {"measurement": "viability, T/C", "setting": "[2]", "result": 113, "unit": "%"}, {"measurement": "viability, T/C", "setting": "[3]", "result": 88.4, "unit": "%"}, {"measurement": "viability, T/C", "setting": "[4]", "result": 63.7, "unit": "%"}, {"measurement": "viability, T/C", "setting": "[5]", "result": 68.8, "unit": "%"}, {"measurement": "viability, T/C", "setting": "[6]", "result": 58.3, "unit": "%"}, {"measurement": "viability, T/C", "setting": "[7]", "result": 97.7, "unit": "%"}, {"measurement": "viability, T/C", "setting": "[8]", "result": 101, "unit": "%"}, {"measurement": "viability, T/C", "setting": "[9]", "result": 88.7, "unit": "%"}, {"measurement": "viability, T/C", "setting": "[10]", "result": 72.9, "unit": "%"}, {"measurement": "viability, T/C", "setting": "[11]", "result": 49.5, "unit": "%"}, {"measurement": "viability, T/C", "setting": "[12]", "result": 59.6, "unit": "%"}, {"measurement": "viability, T/C", "setting": "[13]", "result": 107, "unit": "%"}, {"measurement": "viability, T/C", "setting": "[14]", "result": 103, "unit": "%"}, {"measurement": "viability, T/C", "setting": "[15]", "result": 90.8, "unit": "%"}, {"measurement": "viability, T/C", "setting": "[16]", "result": 77.2, "unit": "%"}, {"measurement": "viability, T/C", "setting": "[17]", "result": 57.8, "unit": "%"}, {"measurement": "viability, T/C", "setting": "[18]", "result": 52.3, "unit": "%"}, {"measurement": "viability, T/C", "setting": "[19]", "result": 107, "unit": "%"}, {"measurement": "viability, T/C", "setting": "[20]", "result": 104, "unit": "%"}, {"measurement": "viability, T/C", "setting": "[21]", "result": 88.7, "unit": "%"}, {"measurement": "viability, T/C", "setting": "[22]", "result": 68.2, "unit": "%"}, {"measurement": "viability, T/C", "setting": "[23]", "result": 55.5, "unit": "%"}, {"measurement": "viability, T/C", "setting": "[24]", "result": 56.8, "unit": "%"}, {"measurement": "viability, T/C", "setting": "[25]", "result": 103, "unit": "%"}, {"measurement": "viability, T/C", "setting": "[26]", "result": 97.2, "unit": "%"}, {"measurement": "viability, T/C", "setting": "[27]", "result": 90.9, "unit": "%"}, {"measurement": "viability, T/C", "setting": "[28]", "result": 67.2, "unit": "%"}, {"measurement": "viability, T/C", "setting": "[29]", "result": 77.3, "unit": "%"}, {"measurement": "viability, T/C", "setting": "[30]", "result": 55.3, "unit": "%"}, {"measurement": "viability, T/C", "setting": "[31]", "result": 120, "unit": "%"}, {"measurement": "viability, T/C", "setting": "[32]", "result": 97.1, "unit": "%"}, {"measurement": "viability, T/C", "setting": "[33]", "result": 85.8, "unit": "%"}, {"measurement": "viability, T/C", "setting": "[34]", "result": 63.3, "unit": "%"}, {"measurement": "viability, T/C", "setting": "[35]", "result": 65.2, "unit": "%"}, {"measurement": "viability, T/C", "setting": "[36]", "result": 53.3, "unit": "%"}]}, {"smiles": "CCc1c2c(nc3ccc(O)cc13)-c1cc3c(c(=O)n1C2)COC(=O)[C@]3(O)CC", "note": "+ C=CC(=O)N1CCN(c2nc(OCC3CCCN3C)nc3c(F)c(-c4nc(N)cc(C)c4C(F)(F)F)c(Cl)cc23)C(C)C1", "values": [{"measurement": "IC50", "setting": "second compound 0.00316 µM", "result": 4.1, "unit": "nM"}, {"measurement": "IC50", "setting": "second compound 0.01 µM", "result": 3.93, "unit": "nM"}, {"measurement": "IC50", "setting": "second compound 0.0316 µM", "result": 4.6, "unit": "nM"}, {"measurement": "IC50", "setting": "second compound 0.1 µM", "result": 3.92, "unit": "nM"}, {"measurement": "IC50", "setting": "second compound 0.316 µM", "result": 4.07, "unit": "nM"}, {"measurement": "IC50", "setting": "second compound 1 µM", "result": 4.39, "unit": "nM"}, {"measurement": "viability, T/C", "setting": "[1]", "result": 91.2, "unit": "%"}, {"measurement": "viability, T/C", "setting": "[2]", "result": 60.4, "unit": "%"}, {"measurement": "viability, T/C", "setting": "[3]", "result": 22.1, "unit": "%"}, {"measurement": "viability, T/C", "setting": "[4]", "result": 9.72, "unit": "%"}, {"measurement": "viability, T/C", "setting": "[5]", "result": 3.7, "unit": "%"}, {"measurement": "viability, T/C", "setting": "[6]", "result": 1.61, "unit": "%"}, {"measurement": "viability, T/C", "setting": "[7]", "result": 97.2, "unit": "%"}, {"measurement": "viability, T/C", "setting": "[8]", "result": 58.9, "unit": "%"}, {"measurement": "viability, T/C", "setting": "[9]", "result": 21.3, "unit": "%"}, {"measurement": "viability, T/C", "setting": "[10]", "result": 9.84, "unit": "%"}, {"measurement": "viability, T/C", "setting": "[11]", "result": 3.15, "unit": "%"}, {"measurement": "viability, T/C", "setting": "[12]", "result": 1.53, "unit": "%"}, {"measurement": "viability, T/C", "setting": "[13]", "result": 99.2, "unit": "%"}, {"measurement": "viability, T/C", "setting": "[14]", "result": 67.4, "unit": "%"}, {"measurement": "viability, T/C", "setting": "[15]", "result": 20, "unit": "%"}, {"measurement": "viability, T/C", "setting": "[16]", "result": 9.96, "unit": "%"}, {"measurement": "viability, T/C", "setting": "[17]", "result": 3.02, "unit": "%"}, {"measurement": "viability, T/C", "setting": "[18]", "result": 1.51, "unit": "%"}, {"measurement": "viability, T/C", "setting": "[19]", "result": 92.8, "unit": "%"}, {"measurement": "viability, T/C", "setting": "[20]", "result": 59.4, "unit": "%"}, {"measurement": "viability, T/C", "setting": "[21]", "result": 19.2, "unit": "%"}, {"measurement": "viability, T/C", "setting": "[22]", "result": 8.28, "unit": "%"}, {"measurement": "viability, T/C", "setting": "[23]", "result": 4.23, "unit": "%"}, {"measurement": "viability, T/C", "setting": "[24]", "result": 1.49, "unit": "%"}, {"measurement": "viability, T/C", "setting": "[25]", "result": 100, "unit": "%"}, {"measurement": "viability, T/C", "setting": "[26]", "result": 60.7, "unit": "%"}, {"measurement": "viability, T/C", "setting": "[27]", "result": 20.4, "unit": "%"}, {"measurement": "viability, T/C", "setting": "[28]", "result": 9.08, "unit": "%"}, {"measurement": "viability, T/C", "setting": "[29]", "result": 3.9, "unit": "%"}, {"measurement": "viability, T/C", "setting": "[30]", "result": 1.28, "unit": "%"}, {"measurement": "viability, T/C", "setting": "[31]", "result": 99.3, "unit": "%"}, {"measurement": "viability, T/C", "setting": "[32]", "result": 65, "unit": "%"}, {"measurement": "viability, T/C", "setting": "[33]", "result": 19.3, "unit": "%"}, {"measurement": "viability, T/C", "setting": "[34]", "result": 10.1, "unit": "%"}, {"measurement": "viability, T/C", "setting": "[35]", "result": 3.83, "unit": "%"}, {"measurement": "viability, T/C", "setting": "[36]", "result": 1.36, "unit": "%"}]}]}
